In general, IC50 refers to the point on the concentration scale where inhibition reaches its midpoint. By inhibition is commonly meant the change of the read-out against control, counted positive when it falls. A high value points to strong suppression.

In the first assay the test system is A549. Put plainly: Antiproliferative activity against human A549 cells assessed as inhibition of cell growth measured after 72 hrs by MTT assay. Type of assay: functional, cell-based. The conditions noted are these: A549, 72 h. (In general: Tetrazolium dyes change colour on reduction, which living cells bring about.)
As for `O=C(NO)c1ccsc1Nc1nc(Nc2ccc(N3CCOCC3)cc2)ncc1Br`, the IC50 was determined as 358 nM.
On the same count and under the same terms, under `O=C(NO)c1ccsc1Nc1nc(Nc2cccc(N3CCOCC3)c2)ncc1Cl` stands 828 nM; under `O=C(NO)c1ccsc1Nc1nc(Nc2ccc(OCCN3CCOCC3)cc2)ncc1Cl`, 557 nM; under `COc1cc(N2CCC(N3CCN(C)CC3)CC2)ccc1Nc1ncc(Cl)c(Nc2ccccc2P(C)(C)=O)n1` [BRIGATINIB], 371 nM.
As to `O=C(NO)c1sccc1Nc1nc(Nc2cccc(N3CCOCC3)c2)ncc1Cl`, the IC50 turned out to be 11200 nM.
`O=C(NO)c1sc2ccccc2c1Nc1nc(Nc2ccc(N3CCOCC3)cc2)ncc1Br`: the IC50 turned out to be 4850 nM.
Take `O=C(NO)c1ccsc1Nc1nc(Nc2ccc(OCCCN3CCOCC3)cc2)ncc1Br`: the IC50 turned out to be 733 nM.
Same read-out and setting: under `O=C(NO)c1ccsc1Nc1nc(Nc2ccc(CCN3CCOCC3)cc2)ncc1Cl` stands 388 nM.
For `O=C(NO)c1ccsc1Nc1ccnc(Nc2ccc(N3CCOCC3)cc2)n1`, the IC50 came out at 5630 nM.
On to `O=C(NO)c1ccsc1Nc1nc(Nc2ccc(CN3CCOCC3)cc2)ncc1Cl`, for which the IC50 was 371 nM.
On to `O=C(NO)c1ccsc1Nc1nc(Nc2ccc(N3CCOCC3)cc2)ncc1C(F)(F)F`, for which the IC50 was 18600 nM.

The test system of a further assay is Epidermal growth factor receptor (Homo sapiens), P00533 [UNDEFINED MUTATION]. As to conditions: dose 100.0 nM.
Sequence of Epidermal growth factor receptor (Homo sapiens), P00533 [UNDEFINED MUTATION] (P00533 whole entry, looked up, change not shown): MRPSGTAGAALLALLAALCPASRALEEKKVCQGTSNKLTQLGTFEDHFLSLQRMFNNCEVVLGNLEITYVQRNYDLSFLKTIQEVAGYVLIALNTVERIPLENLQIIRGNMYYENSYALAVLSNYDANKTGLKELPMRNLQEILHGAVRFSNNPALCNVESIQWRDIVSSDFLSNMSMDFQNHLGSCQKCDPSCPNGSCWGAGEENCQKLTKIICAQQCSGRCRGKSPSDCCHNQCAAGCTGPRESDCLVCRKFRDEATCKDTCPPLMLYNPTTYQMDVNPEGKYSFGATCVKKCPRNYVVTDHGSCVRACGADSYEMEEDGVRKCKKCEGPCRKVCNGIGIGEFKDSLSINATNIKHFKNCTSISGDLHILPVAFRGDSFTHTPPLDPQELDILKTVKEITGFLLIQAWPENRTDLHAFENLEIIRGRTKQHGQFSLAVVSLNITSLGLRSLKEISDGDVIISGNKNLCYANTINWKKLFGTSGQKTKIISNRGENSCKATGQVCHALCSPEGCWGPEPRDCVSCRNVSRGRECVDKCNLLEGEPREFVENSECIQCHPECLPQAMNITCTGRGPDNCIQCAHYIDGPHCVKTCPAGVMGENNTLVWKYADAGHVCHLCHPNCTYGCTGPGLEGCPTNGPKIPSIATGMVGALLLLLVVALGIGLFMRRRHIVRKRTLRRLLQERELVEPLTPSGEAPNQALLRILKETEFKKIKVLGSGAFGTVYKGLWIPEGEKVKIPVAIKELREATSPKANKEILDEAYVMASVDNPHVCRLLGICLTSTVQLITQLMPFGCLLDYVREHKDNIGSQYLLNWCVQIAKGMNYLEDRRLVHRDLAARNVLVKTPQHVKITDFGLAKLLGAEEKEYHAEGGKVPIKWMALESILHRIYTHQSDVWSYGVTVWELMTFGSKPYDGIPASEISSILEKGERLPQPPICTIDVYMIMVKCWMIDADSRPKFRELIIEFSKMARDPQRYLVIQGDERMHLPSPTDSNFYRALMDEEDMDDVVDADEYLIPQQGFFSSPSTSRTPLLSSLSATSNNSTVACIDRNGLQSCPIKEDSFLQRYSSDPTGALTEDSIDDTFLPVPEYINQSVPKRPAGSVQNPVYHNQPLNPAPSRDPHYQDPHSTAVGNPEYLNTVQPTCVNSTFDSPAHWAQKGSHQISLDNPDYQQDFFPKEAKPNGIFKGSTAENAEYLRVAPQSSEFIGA
Compound `O=C(NO)c1ccsc1Nc1nc(Nc2ccc(N3CCOCC3)cc2)ncc1Br` had an inhibition of 55.9%.
`O=C(NO)c1ccsc1Nc1nc(Nc2cccc(N3CCOCC3)c2)ncc1Cl` showed an inhibition of 66.8%.
`O=C(NO)c1ccsc1Nc1nc(Nc2ccc(OCCN3CCOCC3)cc2)ncc1Cl` registered an inhibition of 66%.
The same measure, in the same setting: under `COc1cc(N2CCC(N3CCN(C)CC3)CC2)ccc1Nc1ncc(Cl)c(Nc2ccccc2P(C)(C)=O)n1` [BRIGATINIB] stands 89.7%; under `O=C(NO)c1sccc1Nc1nc(Nc2cccc(N3CCOCC3)c2)ncc1Cl`, 45%; under `O=C(NO)c1sc2ccccc2c1Nc1nc(Nc2ccc(N3CCOCC3)cc2)ncc1Br`, 4.79%.
For `O=C(NO)c1ccsc1Nc1nc(Nc2ccc(OCCCN3CCOCC3)cc2)ncc1Br`, the inhibition amounted to 53%.
Same read-out and setting: under `O=C(NO)c1ccsc1Nc1nc(Nc2ccc(CCN3CCOCC3)cc2)ncc1Cl` stands 64.9%.
Compound `O=C(NO)c1ccsc1Nc1ccnc(Nc2ccc(N3CCOCC3)cc2)n1` showed an inhibition of 50.2%.
As for `O=C(NO)c1ccsc1Nc1nc(Nc2ccc(CN3CCOCC3)cc2)ncc1Cl`, the inhibition stood at 70.9%.
Compound `O=C(NO)c1ccsc1Nc1nc(Nc2ccc(N3CCOCC3)cc2)ncc1C(F)(F)F` had an inhibition of 32.7%.

The next assay shares this test system. The conditions noted are these: dose 30.0 nM.
For `O=C(NO)c1ccsc1Nc1nc(Nc2ccc(N3CCOCC3)cc2)ncc1Br`, the inhibition stood at 12.4%.
Turning to `O=C(NO)c1ccsc1Nc1nc(Nc2cccc(N3CCOCC3)c2)ncc1Cl`, the inhibition worked out at 23.9%.
As to `O=C(NO)c1ccsc1Nc1nc(Nc2ccc(OCCN3CCOCC3)cc2)ncc1Cl`, the inhibition is 36.1%.
Take `COc1cc(N2CCC(N3CCN(C)CC3)CC2)ccc1Nc1ncc(Cl)c(Nc2ccccc2P(C)(C)=O)n1` [BRIGATINIB]: the inhibition was found to be 64.1%.
`O=C(NO)c1sccc1Nc1nc(Nc2cccc(N3CCOCC3)c2)ncc1Cl` returned an inhibition of 15.8%.
Consider `O=C(NO)c1sc2ccccc2c1Nc1nc(Nc2ccc(N3CCOCC3)cc2)ncc1Br`, for which the inhibition amounted to 0.17%.
`O=C(NO)c1ccsc1Nc1nc(Nc2ccc(OCCCN3CCOCC3)cc2)ncc1Br` gave an inhibition of 29.8%.
Take `O=C(NO)c1ccsc1Nc1nc(Nc2ccc(CCN3CCOCC3)cc2)ncc1Cl`: the inhibition was 36.7%.
Take `O=C(NO)c1ccsc1Nc1ccnc(Nc2ccc(N3CCOCC3)cc2)n1`: the inhibition was 15.9%.
Turning to `O=C(NO)c1ccsc1Nc1nc(Nc2ccc(CN3CCOCC3)cc2)ncc1Cl`, the inhibition worked out at 44.1%.
Take `O=C(NO)c1ccsc1Nc1nc(Nc2ccc(N3CCOCC3)cc2)ncc1C(F)(F)F`: the inhibition was 18.2%.

The next assay relates to HCC827. Put plainly: Antiproliferative activity against human HCC827 cells assessed as inhibition of cell growth measured after 72 hrs by MTT assay. Type of assay: functional, cell-based. The conditions noted are these: HCC827, 72 h.
Regarding `O=C(NO)c1ccsc1Nc1nc(Nc2ccc(N3CCOCC3)cc2)ncc1Br`, the IC50 was 429 nM.
Turning to `O=C(NO)c1ccsc1Nc1nc(Nc2cccc(N3CCOCC3)c2)ncc1Cl`, the IC50 was found to be 462 nM.
In the case of `O=C(NO)c1ccsc1Nc1nc(Nc2ccc(OCCN3CCOCC3)cc2)ncc1Cl`, the IC50 worked out at 70 nM.
Consider `COc1cc(N2CCC(N3CCN(C)CC3)CC2)ccc1Nc1ncc(Cl)c(Nc2ccccc2P(C)(C)=O)n1` [BRIGATINIB], for which the IC50 was 3 nM.
For `O=C(NO)c1sccc1Nc1nc(Nc2cccc(N3CCOCC3)c2)ncc1Cl`, the IC50 turned out to be 3250 nM.
On to `O=C(NO)c1sc2ccccc2c1Nc1nc(Nc2ccc(N3CCOCC3)cc2)ncc1Br`, for which the IC50 was 4340 nM.
Turning to `O=C(NO)c1ccsc1Nc1nc(Nc2ccc(OCCCN3CCOCC3)cc2)ncc1Br`, the IC50 came out at 335 nM.
With `O=C(NO)c1ccsc1Nc1nc(Nc2ccc(CCN3CCOCC3)cc2)ncc1Cl`, the IC50 was 45 nM.
With `O=C(NO)c1ccsc1Nc1ccnc(Nc2ccc(N3CCOCC3)cc2)n1`, the IC50 is 463 nM.
On the same count and under the same terms, under `O=C(NO)c1ccsc1Nc1nc(Nc2ccc(CN3CCOCC3)cc2)ncc1Cl` stands 33 nM; under `O=C(NO)c1ccsc1Nc1nc(Nc2ccc(N3CCOCC3)cc2)ncc1C(F)(F)F`, 1700 nM.

Another assay has as its system NCI-H1975. Put plainly: Antiproliferative activity against human NCI-H1975 cells assessed as inhibition of cell growth measured after 72 hrs by MTT assay. The assay is classed as functional, cell-based. As to conditions: NCI-H1975, 72 h.
With `O=C(NO)c1ccsc1Nc1nc(Nc2ccc(N3CCOCC3)cc2)ncc1Br`, the IC50 came out at 2010 nM.
For `O=C(NO)c1ccsc1Nc1nc(Nc2cccc(N3CCOCC3)c2)ncc1Cl`, the IC50 is 788 nM.
Same read-out and setting: under `O=C(NO)c1ccsc1Nc1nc(Nc2ccc(OCCN3CCOCC3)cc2)ncc1Cl` stands 249 nM; under `COc1cc(N2CCC(N3CCN(C)CC3)CC2)ccc1Nc1ncc(Cl)c(Nc2ccccc2P(C)(C)=O)n1` [BRIGATINIB], 424 nM; under `O=C(NO)c1sccc1Nc1nc(Nc2cccc(N3CCOCC3)c2)ncc1Cl`, 1200 nM.
As to `O=C(NO)c1sc2ccccc2c1Nc1nc(Nc2ccc(N3CCOCC3)cc2)ncc1Br`, the IC50 is 2400 nM.
`O=C(NO)c1ccsc1Nc1nc(Nc2ccc(OCCCN3CCOCC3)cc2)ncc1Br`: the IC50 was 524 nM.
As to `O=C(NO)c1ccsc1Nc1nc(Nc2ccc(CCN3CCOCC3)cc2)ncc1Cl`, the IC50 amounted to 162 nM.
Same read-out and setting: under `O=C(NO)c1ccsc1Nc1ccnc(Nc2ccc(N3CCOCC3)cc2)n1` stands 542 nM; under `O=C(NO)c1ccsc1Nc1nc(Nc2ccc(CN3CCOCC3)cc2)ncc1Cl`, 331 nM.
With `O=C(NO)c1ccsc1Nc1nc(Nc2ccc(N3CCOCC3)cc2)ncc1C(F)(F)F`, the IC50 is 1670 nM.
